Reference: US11957683B2, “Bicyclic compounds” (Aligos Therapeutics, Inc., priority 2021, dated 2024)

Columns and labels:
[1] = Cell viability by CellTiter-Glo 2.0 (intracellular ATP) in HepG2.117 cells; assay type: cell-based; conditions: human, CellTiter-Glo 2.0, HepG2.117 cells, 3 days incubation
Experimental: (§1) The following assay procedure describes the HBV antiviral assay, using HepG2.117 cells, which carry a stably integrated genotype D HBV genome under the control of a Tet-off promoter, and intracellular HBV DNA quantification as endpoint. Cell viability is assessed in parallel by measuring the intracellular ATP content using CellTiter-Glo 2.0 (Promega).
(§2) On day 1, medium is removed from each well, the test articles are diluted in culture medium without doxcycyline and 100 μL was added to cell culture wells (9 concentrations, 4-fold dilution). For each plate, 6 untreated (merely DMSO) wells are included. The final concentration of DMSO in the culture medium is 2%. Each plate is prepared in duplicate (one for HBV DNA extraction, one for CellTiter-Glo 2.0 measurement). The cells are incubated at 37° C. and 5% CO2 for 3 days.
(§3) On day 4, cell viability is assessed using CellTiter-Glo 2.0 and cell lysates are prepared for HBV DNA extraction and subsequent quantification by qPCR.
Using the other plates, the cell viability is quantified by CellTiter-Glo 2.0 according to the manufacturer's manual. In brief, 100 μL of reagent solution is added to the culture plates and shaken for 2′. The plates are incubated at rt for 10 min and luminescence signal is subsequently measured on a VarioSkan Lux (ThermoFisher) plate reader.
(§4) Cell viability is calculated as follows: % Cell viability=(luminescence value of test sample)/(average luminescence value of 2% DMSO control)×100%. HBV DNA inhibition was calculated as follows: 100−(HBV DNA copy number of test sample)/(average HBV DNA copy number of 2% DMSO control)×100%. No normalization to entecavir is required due to the excellent dynamic window of this assay. The CC50, EC50 and EC90 values were determined by dose-response curves fitted using non-linear regression.

HBV = assay: HBV-DNA antiviral assay using HepG2.117 cells; assay type: cell-based, HBV genotype D; conditions: Hepatitis B virus, 72 h; HBV DNA inhibition, intracellular HBV DNA by qPCR, HepG2.117 cells, 3 days incubation; read-out: EC50
Experimental: as §1
On day 0, HepG2.117 cells (which are maintained in routine cell culture with doxycycline present in the medium at a final concentration of 1 μg/mL) are seeded in 96-well plates (white with clear bottom) at a density of 2.0×10^4 cells/well (0.1 mL/well) in medium without doxycycline to induce pgRNA transcription and subsequent formation of HBV particles. The cells are incubated at 37° C. and 5% CO2.
as §2, §3
Medium is removed from each well and 100 μL of 0.33% NP-40 in H2O was added to each well. Plates are sealed, incubated at 4° C. for 5 mins, vortexed extensively and centrifuged briefly. Next, 35 μL of lysate is added to 65 μL QuickExtract DNA Extraction Solution (Epicentre) in a PCR plate for each well. PCR plate is incubated at 65° C. for 6 mins, 98° C. for 2 mins and finally cooled to 4° C. HBV DNA is then quantified by qPCR with HBV-specific primers and probes as specified in Table 2 using the Bio-Rad SSOAdvanced Universal Probes Supermix on a CFX96 machine (Bio-Rad). The PCR cycle program consisted of 95° C. for 3 mins, followed by 40 cycles at 95° C. for 10 sec and 60° C. for 30 sec.
A DNA standard is prepared by dilution of an IDT gBlock corresponding to the amplicon with concentrations ranging from 10^2 to 10^8 copies/input (i.e., per 4 μL) and used to generate a standard curve by plotting Cq values vs. HBV DNA standard concentration. The quantity of HBV DNA in each sample is determined by interpolating from the standard curve.
as §4

SMILES	CC50 at 3 days [1] [µM]	EC50 (HBV) [µM]
C=C[C@@H](C)Nc1nc2c(c(=O)n1-c1ccc(-c3nncn3C)cc1)C[C@@H](C)N(C(=O)c1ccc(Br)c(C(F)(F)F)c1)C2 [Compound 22, (R)-7-(4-bromo-3-(trifluoromethyl)benzoyl)-2-(((R)-but-3-en-2-yl)amino)-6-methyl-3-(4-(4-methyl-4H-1,2,4-triazol-3-yl)phenyl)-5,6,7,8-tetrahydropyrido[3,4-d]pyrimidin-4(3H)-one]	> 50	< 0.05
CNC(=O)c1ccc(-n2c(C#CCC(C)C)nc3c(c2=O)C[C@@H](C)N(C(=O)c2ccc(Br)c(C(F)(F)F)c2)C3)cc1 [Compound 23, (R)-4-(7-(4-bromo-3-(trifluoromethyl)benzoyl)-6-methyl-2-(4-methylpent-1-yn-1-yl)-4-oxo-5,6,7,8-tetrahydropyrido[3,4-d]pyrimidin-3(4H)-yl)-N-methylbenzamide]	11.7	0.05 to 0.5
C=C[C@H](C)Nc1nc2c(c(=O)n1-c1ccc(C(=O)NC)cn1)C[C@@H](C)N(C(=O)c1ccc(Br)c(C(F)(F)F)c1)C2 [Compound 24, 6-((R)-7-(4-bromo-3-(trifluoromethyl)benzoyl)-2-(((S)-but-3-en-2-yl)amino)-6-methyl-4-oxo-5,6,7,8-tetrahydropyrido[3,4-d]pyrimidin-3(4H)-yl)-N-methylnicotinamide]	> 0.5	< 0.05
C=C[C@H](C)Nc1nc2c(c(=O)n1-c1ccc3ncn(C)c3c1)C[C@@H](C)N(C(=O)c1ccc(Br)c(C(F)(F)F)c1)C2 [Compound 25, (R)-7-(4-bromo-3-(trifluoromethyl)benzoyl)-2-(((S)-but-3-en-2-yl)amino)-6-methyl-3-(1-methyl-1H-benzo[d]imidazol-6-yl)-5,6,7,8-tetrahydropyrido[3,4-d]pyrimidin-4(3H)-one]	29.7	< 0.05
C=C[C@H](C)Nc1nc2c(c(=O)n1-c1cnc3c(c1)ncn3C)C[C@@H](C)N(C(=O)c1ccc(Br)c(C(F)(F)F)c1)C2 [Compound 26, (R)-7-(4-bromo-3-(trifluoromethyl)benzoyl)-2-(((S)-but-3-en-2-yl)amino)-6-methyl-3-(3-methyl-3H-imidazo[4,5-b]pyridin-6-yl)-5,6,7,8-tetrahydropyrido[3,4-d]pyrimidin-4(3H)-one]	> 0.5	< 0.05
C=C[C@H](C)Nc1nc2c(c(=O)n1-c1ccc(-c3cnn(C)c3)cc1)C[C@@H](C)N(C(=O)c1ccc(Br)c(C(F)(F)F)c1)C2 [Compound 27, (R)-7-(4-bromo-3-(trifluoromethyl)benzoyl)-2-(((S)-but-3-en-2-yl)amino)-6-methyl-3-(4-(1-methyl-1H-pyrazol-4-yl)phenyl)-5,6,7,8-tetrahydropyrido[3,4-d]pyrimidin-4(3H)-one]	22.8	< 0.05
C=C[C@H](C)Nc1nc2c(c(=O)n1-c1ccc3c(c1)nc(C)n3C)C[C@@H](C)N(C(=O)c1ccc(Br)c(C(F)(F)F)c1)C2 [Compound 28, (R)-7-(4-bromo-3-(trifluoromethyl)benzoyl)-2-(((S)-but-3-en-2-yl)amino)-3-(1,2-dimethyl-1H-benzo[d]imidazol-5-yl)-6-methyl-5,6,7,8-tetrahydropyrido[3,4-d]pyrimidin-4(3H)-one]	30.5	< 0.05
C=CC(C)(C)Nc1nc2c(c(=O)n1-c1ccc3c(c1)ncn3C)C[C@@H](C)N(C(=O)c1ccc(Br)c(C(F)(F)F)c1)C2 [Compound 29, (R)-7-(4-bromo-3-(trifluoromethyl)benzoyl)-6-methyl-3-(1-methyl-1H-benzo[d]imidazol-5-yl)-2-((2-methylbut-3-en-2-yl)amino)-5,6,7,8-tetrahydropyrido[3,4-d]pyrimidin-4(3H)-one]	30.5	< 0.05
C=C[C@H](C)Nc1nc2c(c(=O)n1-c1ccc(C(=O)NC)nn1)C[C@@H](C)N(C(=O)c1ccc(Br)c(C(F)(F)F)c1)C2 [Compound 30, 6-((R)-7-(4-bromo-3-(trifluoromethyl)benzoyl)-2-(((S)-but-3-en-2-yl)amino)-6-methyl-4-oxo-5,6,7,8-tetrahydropyrido[3,4-d]pyrimidin-3(4H)-yl)-N-methylpyridazine-3-carboxamide]	> 50	< 0.05
C=C[C@H](C)Nc1nc2c(c(=O)n1-c1cc3ncn(C)c3cc1F)C[C@@H](C)N(C(=O)c1ccc(Br)c(C(F)(F)F)c1)C2 [Compound 32a, (R)-7-(4-bromo-3-(trifluoromethyl)benzoyl)-2-(((S)-but-3-en-2-yl)amino)-3-(6-fluoro-1-methyl-1H-benzo[d]imidazol-5-yl)-6-methyl-5,6,7,8-tetrahydropyrido[3,4-d]pyrimidin-4(3H)-one]	29.5	< 0.05
C=C[C@H](C)Nc1nc2c(c(=O)n1-c1ccc3c(cnn3C)c1)C[C@@H](C)N(C(=O)c1ccc(Br)c(C(F)(F)F)c1)C2 [Compound 33, (6R)-7-[4-bromo-3-(trifluoromethyl)benzoyl]-6-methyl-2-[[(1S)-1-methylallyl]amino]-3-(1-methylindazol-5-yl)-6,8-dihydro-5H-pyrido[3,4-d]pyrimidin-4-one]	> 50	< 0.05
C=C[C@H](C)Nc1nc2c(c(=O)n1-c1cc(Cl)c3c(cnn3C)c1)C[C@@H](C)N(C(=O)c1ccc(Br)c(C(F)(F)F)c1)C2 [Compound 34]	11.6	< 0.05
C=C[C@H](C)Nc1nc2c(c(=O)n1-c1ccc3c(c1)ncn3CC(F)(F)F)C[C@@H](C)N(C(=O)c1ccc(Br)c(C(F)(F)F)c1)C2 [Compound 35, (6R)-7-[4-bromo-3-(trifluoromethyl)benzoyl]-6-methyl-2-[[(1S)-1-methylallyl]amino]-3-[1-(2,2,2-trifluoroethyl)benzimidazol-5-yl]-6,8-dihydro-5H-pyrido[3,4-d]pyrimidin-4-one]	28.5	< 0.05
C=C[C@H](C)Nc1nc2c(c(=O)n1-c1ccn3c(C)nnc3c1)C[C@@H](C)N(C(=O)c1ccc(Br)c(C(F)(F)F)c1)C2 [Compound 36, (6R)-7-[4-bromo-3-(trifluoromethyl)benzoyl]-6-methyl-2-[[(1S)-1-methylallyl]amino]-3-(3-methyl-[1,2,4]triazolo[4,3-a]pyridin-7-yl)-6,8-dihydro-5H-pyrido[3,4-d]pyrimidin-4-one]	> 50	< 0.05
C=C[C@H](C)Nc1nc2c(c(=O)n1-c1ccc(-c3cnn(C)c3)cn1)C[C@@H](C)N(C(=O)c1ccc(Br)c(C(F)(F)F)c1)C2 [Compound 37, (6R)-7-[4-bromo-3-(trifluoromethyl)benzoyl]-6-methyl-2-[[(1S)-1-methylallyl]amino]-3-[5-(1-methylpyrazol-4-yl)-2-pyridyl]-6,8-dihydro-5H-pyrido[3,4-d]pyrimidin-4-one]	> 50	< 0.05
C=C[C@H](C)Nc1nc2c(c(=O)n1-c1ccc3c(c1)ncn3C1CC1)C[C@@H](C)N(C(=O)c1ccc(Br)c(C(F)(F)F)c1)C2 [Compound 38, (6R)-7-[4-bromo-3-(trifluoromethyl)benzoyl]-3-(1-cyclopropylbenzimidazol-5-yl)-6-methyl-2-[[(1S)-1-methylallyl]amino]-6,8-dihydro-5H-pyrido[3,4-d]pyrimidin-4-one]	24.3	< 0.05
C=C[C@H](C)Nc1nc2c(c(=O)n1-c1ccc(OC[C@@H](C)O)cn1)C[C@@H](C)N(C(=O)c1ccc(Br)c(C(F)(F)F)c1)C2 [Compound 39, (6R)-7-[4-bromo-3-(trifluoromethyl)benzoyl]-3-[5-[(2R)-2-hydroxypropoxy]-2-pyridyl]-6-methyl-2-[[(1S)-1-methylallyl]amino]-6,8-dihydro-5H-pyrido[3,4-d]pyrimidin-4-one]	28.1	< 0.05
